Assays:
MUC2 mRNA = MUC2 mRNA induction in intestinal epithelial cells (MUC2 mRNA/28S rRNA ratio); assay type: cell-based, human; conditions: for MUC2 mRNA/28S rRNA ratio, mean: conditions favoring MUC2 expression, peptides at conditions optimized for MUC3 (50 μg/ml, 30 min), control = 100
Text: (§1) These four peptides were used in a cell culture assay designed to evaluate them for their properties of inducing mucin (MUC) mRNA production, either MUC3 or MUC2 according to the methods described by Mack et al. (Biochem. Biophys. Res. Commun. 199: 1012-1018, 1994 and Am J Physiol. Vol. 4, part 1, pg. G841-950, 1999).
MUC2 Stimulation. To address whether the N-Terminal 10 amino acid bovine colostrum-SAA peptide would stimulate mRNA synthesis for MUC2 production, intestinal epithelial cells were cultured under conditions favoring MUC2 expression rather than MUC3. All peptides were used at concentrations and conditions that were previously optimized for MUC3 stimulation. None of the peptides stimulated the production of MUC2 mRNA. […] Additionally, conditions were changed to 2× the optimum MUC3 incubation time (1 hr). […] The evidence strongly indicates specificity of function in stimulating the production of a mucin produced mainly in the small intestine (MUC3) over one produced primarily in the large intestine (MUC2).

MUC3 mRNA = MUC3 mRNA induction in intestinal epithelial cells (MUC3 mRNA/28S rRNA ratio); assay type: cell-based, human; conditions: for MUC3 mRNA/28S rRNA ratio, mean / MUC3 mRNA stimulation (in words): peptides at 50 μg/ml, 30 minutes at 37° C.; for MUC3 mRNA/28S rRNA ratio, mean / MUC3/28S rRNA ratio, mean: control = 100; for MUC3 mRNA stimulation (in words): versus control; for MUC3/28S rRNA ratio, mean: 30 min 37° C.
Text: (§2) Different mucin genes have been identified and to date, thirteen human mucin genes have been identified. However, MUC3 mucin is the predominant small intestinal mucin. It has previously been shown that the MUC3 mucins are effective in preventing the adherence of enteropathogenic Escherichia coli (EPEC) to intestinal epithelial cells. […] It is also well known that breast-feeding infants are far less susceptible to infectious diarrhea than formula fed infants. There are a number of theories why this is so, but it is hypothesized that milk-associated amyloid (colostrum SAA) may be an important inducer of MUC3 gene expression. Applicant has evaluated MUC3 mRNA expression using an in vitro human cell culture assay system. […] To further explore this finding, Applicant has evaluated the functional specificity of the N-terminal peptide sequence of colostrum SAA by evaluation of MUC3 expression in the same in vitro assay using colostrum SAA N-terminal peptide sequences that have been randomly scrambled and a colostrum SAA peptide sequence downstream of the N-terminal sequence. If the expression of MUC3 is increased then intestinal cells grown in the presence of colostrum SAA should have a greater capacity to inhibit adherence of bacterial pathogens. This was studied (FIG. 2B) using EPEC in an in vitro assay system pre-incubated with colostrum SAA in the cell culture medium. Enteropathogenic E. coli are non-invasive, non-toxin producing pathogens that have been recognized as a significant cause of diarrhea in third world countries and in day care settings in developed countries. Future studies will evaluate the benefits of colostrum SAA in in vivo studies as well as characterized animal equivalent to human EPEC. Colostrum associated SAA provides a means to naturally upregulate the innate protective mechanisms of the human intestine and would provide a novel form of therapy to a common problem that occurs all too often in the third world leads to death of infants and in the developed world countries and leads to significant morbidity and cost. Thus, this is an effective, natural, non-drug/chemical therapy for all infectious diarrhea.
as §1
Intestinal epithelial cells, Mack et al. 1994, 1999, were exposed to the N-terminal 10 amino acid bovine colostrum-SAA peptide at various concentrations for 30 minutes incubation at 37° C. The cells were incubated an additional hour following replacement of the test medium with fresh medium without peptide and then the total cellular mRNA isolated and analyzed for MUC3 specific mRNA.
MUC3 stimulating activity of the N-terminal 10 amino acid bovine colostrum-SAA peptide was compared to the activity of the “Limited Scramble”, the “Total Scramble” and “C-Terminal peptides”. Optimum time and temperature of incubation and concentration of peptides was for 30 minutes at 37° C. at 50 μg/ml respectively.

[1] = system: EPEC adherence to HT29 human intestinal cells; assay: Inhibition of EPEC adherence to HT29 cells (FIG. 4B); assay type: cell-based, enteropathogenic Escherichia coli; conditions: before 10^6 CFU/well EPEC, 3 h incubation, P<0.03
Method: FIG. 4B is a graph showing the comparative inhibition of EPEC adherence to HT29 human intestinal cells grown in a glucose-free galactose-containing cell culture medium to enhance MUC3 expression. Each well received either 10^9 CFU of the probiotic L. rhamnosus strain GG (LrGG), a single dose (1×) of the 10-mer peptide at 50 μg/mL (LS, Bov50, or Hum50) or at 250 μg/mL (Bov250 or Hum250), or two separate doses (2×) at 1 h intervals of the 10-mer peptide at 250 μg/mL. Samples were incubated at 37° C. with the HT29 cells for either a total of 1 h (single dose, 1×) or 2 h (two doses, 2×) prior to the addition of 10^6 CFU/well of EPEC. After a 3 h incubation, EPEC adherent to the HT29 cells were quantified by determining CFU/well. Results are expressed as means ±SEM of 2-6 independent experiments run in triplicate. Amino acid sequences for the 10-mer peptides are detailed in Table 1 referred to on page 37.
as §2, with “Colostrum associated SAA provides a means to naturally upregulate the innate protective mechanisms of the human intestine and would provide a novel form of therapy to a common problem that occurs all too often in the third world leads to death of infants and in the developed world countries and leads to significant morbidity and cost. Thus, this is an effective, natural, non-drug/chemical therapy for all infectious diarrhea.” left out

[2] = system: Bovine MAC-T mammary gland epithelial cells; assay: Colostrum-SAA production by MAC-T cells stimulated with prolactin (ELISA of growth media); assay type: cell-based
Method: Bovine MAC-T mammary gland epithelial cells were obtained from ATCC (CRL-10274) and cultured according to recommended conditions (Turner, J D and Huynh H. Immortalized bovine mammary epithelial cell line. U.S. Pat. No. 5,227,301 dated Jul. 13, 1993). MAC-T cells were cultured on Dulbecco's Modified Eagles Media (DMEM) supplemented with 10% Fetal Calf Serum (FCS), 5 μg/ml insulin, 1μg/ml hydrocortisone and fungizone. Cells were incubated at 37° C. with 5% CO2. For colostrum-SAA production the cells were seeded onto type I Collagen coated plates. After 14 hours of incubation, the cells were washed twice with Dulbecco's phosphate buffered saline (DPBS) and incubated in media (DMEM, 5 μg/ml insulin, 1 μg/ml hydrocortisone and 2.5% FCS) supplemented with prolactin from sheep pituitary gland (5 μg/ml) for the stimulation of colostrum-SAA production. Approximately one half of the media was replaced daily with fresh prolactin supplemented media. Standard ELISA for the quantitation of SAA was used to assay aliquots of the growth media collected on the different days for the presence of colostrum-SAA.
Cells were kept in culture for 41 days in media supplemented with prolactin. Levels of colostrum-SAA production reached a maximum of almost 3000 ng/ml.

[3] = Isoelectric focusing / 2-D gel of SAA preparations; assay type: physicochemical, bovine
Text: The PROTEIN IEF Cell (BioRad) was used for the isoelectric focusing of the various SAA preparations. Ready Strip IPG Strips (BioRad Laboratories) with a pH range of 3-10 were used for the IEF. The second dimension (2-D) of the protein analysis was done by subjecting the IPG strips to 12% SDS-PAGE gel and electroblotting onto a PVDF membrane. The strips and blots were done in duplicate so that one of the blots could be stained with a protein stain, Coomassie Brilliant Blue, (CBB) and the other stained with the anti-SAA monoclonal antibody for the identification of the SAA protein isoforms. The samples also contained internal IEF standards (BioRad Laboratories) so that isoelectric point (pI) of each SAA isoforms could be determined. By comparing the antibody stained spots to the spots of the standards stained with CBB the apparent pI of the SAA isoforms could be determined. All of these procedures were done according to the protocol recommended by the manufacturer.
The proteins subjected to the IEF and 2-D analysis were either affinity purified as described for the cell culture fluid or, in the case of the serum only semi-purified by hydrophobic chromatography. SAA is a highly hydrophobic molecule and will bind readily to Octyl Sepharose beads and then under the appropriate conditions can be eluted off the matrix. Briefly, serum with an elevated SAA level was tumbled for one hour with an equal volume of Octyl Sepharose CL-4B gel to allow for hydrophobic binding of the proteins from the serum to the gel. […]
The PROTEIN IEF Cell (BioRad) was used for the isoelectric focusing of the MAA preparations. […] Ready strip IPG Strips (BioRad Laboratories) with a pH range of 3-10 and 7-10 were used for the IEF. […] By comparing the spots stained with the antibody on the blot of the 2D gel from the MAA purified from colostrum and the MAA from the culture fluid of MAC-T cells stimulated with LPS, the similarities of the isoforms could be determined. Each sample was first analyzed on a pH 3-10 IPG strip for the first dimension of separation and then a subsequent sample analyzed on a pH 7-10 IPG strip.

## GKFAWEGMTL [Total Scramble, control peptide, amino acids of the entire N-Terminal peptide arranged in random order, reference compound]
MUC2 mRNA
  MUC2 mRNA/28S rRNA ratio, mean: 65.833
MUC3 mRNA
  MUC3 mRNA/28S rRNA ratio, mean: 109.333

## GWLTFLKAAG [Hum]
[1]; 10-mer peptide at 50 μg/mL
  EPEC adherence to HT29 cells relative to untreated cells (in words): significantly decreased adherence of EPEC
[1]; 10-mer peptide at 250 μg/mL
  EPEC adherence to HT29 cells relative to untreated cells (in words): significantly decreased adherence of EPEC

## MWGLTKFEAG [Limited Scramble, Bovine MAA with TFLK motif scrambled]
MUC2 mRNA
  MUC2 mRNA/28S rRNA ratio, mean: 87.167
MUC3 mRNA
  MUC3 mRNA/28S rRNA ratio, mean: 95.000
  MUC3 mRNA stimulation (in words): lack of stimulation

## MWGTFLKEAG [N-terminal]
MUC2 mRNA; 100 and 500 μg/ml, and 2× incubation time (1 hr)
  MUC2 mRNA stimulation (in words): None of these changes resulted in MUC2 mRNA increase over control values
MUC2 mRNA; concentrations and conditions optimized for MUC3 stimulation
  MUC2 mRNA stimulation (in words): not significantly different
MUC2 mRNA
  MUC2 mRNA/28S rRNA ratio, mean: 101.167
MUC3 mRNA; 30 minutes incubation at 37° C.
  optimum concentration for MUC3 mRNA stimulation: 50 µg/mL
MUC3 mRNA; peptide concentration 1 (μg/ml)
  MUC3/28S rRNA ratio, mean: 105.429
MUC3 mRNA; peptide concentration 10 (μg/ml)
  MUC3/28S rRNA ratio, mean: 105.857
MUC3 mRNA; peptide concentration 25 (μg/ml)
  MUC3/28S rRNA ratio, mean: 145.000
MUC3 mRNA; peptide concentration 50 (μg/ml)
  MUC3/28S rRNA ratio, mean: 220.500
MUC3 mRNA; peptide concentration 100 (μg/ml)
  MUC3/28S rRNA ratio, mean: 103.125
MUC3 mRNA
  MUC3 mRNA/28S rRNA ratio, mean: 174.833
  MUC3 mRNA stimulation (in words): increased MUC3 mRNA expression
MUC3 mRNA; listed as N-Terminal
  MUC3 mRNA stimulation (in words): the only peptide that stimulated MUC3 mRNA statistically significantly over the control values
[1]; 10-mer peptide at 50 μg/mL
  EPEC adherence to HT29 cells relative to untreated cells (in words): significantly decreased adherence of EPEC
[1]; 10-mer peptide at 250 μg/mL
  EPEC adherence to HT29 cells relative to untreated cells (in words): significantly decreased adherence of EPEC

## SAADAAQRGPQQA [C-terminal, control 10 amino acid peptide in which the first 7 were from residues 62-69 of bovine SAA, reference compound]
MUC2 mRNA
  MUC2 mRNA/28S rRNA ratio, mean: 67.500
MUC3 mRNA
  MUC3 mRNA/28S rRNA ratio, mean: 111.333

B1: prolactin: prolactin from sheep pituitary gland (protein, UniProt P01240 31-229, looked up)
Prolactin: TPVCPNGPGNCQVSLRDLFDRAVMVSHYIHNLSSEMFNEFDKRYAQGKGFITMALNSCHTSSLPTPEDKEQAQQTHHEVLMSLILGLLRSWNDPLYHLVTEVRGMKGVPDAILSRAIEIEEENKRLLEGMEMIFGQVIPGAKETEPYPVWSGLPSLQTKDEDARHSAFYNLLHCLRRDSSKIDTYLKLLNCRIIYNNNC
[2]; media supplemented with prolactin 5 μg/ml, 41 days in culture, collagen coated plates
  maximum level of colostrum-SAA production: ~3000 ng/mL
[2]; prolactin at 5 μg/ml, MAC T cells, 13 days of stimulation (FIG. 2)
  day by which measurable quantities of colostrum-SAA could be detected: ≤ 1 days

B2: colostrum-SAA: bovine mammary-associated serum amyloid A 3, purified from colostrum or MAC-T cell culture fluid (protein)
chain: QRWGTFLKEAGQGAKDMWRAYQDMKEANYRGADKYFHARGNYDAARRGPGGAWAAKVISNARETIQGITDPLFKGMTRDQVREDSKADQFANEWGRSGKDPNHFRPAGLPDKY
[3]; from both colostrum and MAC-T cell culture fluid (prolactin), pH 3-10 IPG strips
  pI: greater than 8
[3]; pH 3-10 IPG strips, internal IEF standards
  apparent pI: 9.4-9.6
[3]; purified from culture fluid of MAC-T cells stimulated with LPS, only one isoform, pH 3-10 and 7-10 IPG strips
  pI: 9.4-9.6

Reference: patent publication US20050107315A1, “Mammary-associated serum amuloid a3 promoter sequences and used for same” (Board of Regents of the University of Nebraska, priority 2001, published 2005)
